PubChem BioAssay AID248 (DTP/NCI, 2004)
“And” between values parts separate entries of the source, which are not always exact repeats. Equal entries are not always repeated. Toxic doses and inconclusive results are not listed. No stated cut-off is given here; in the data, active means T/C of 150% or more; inactive means T/C below 125%.

Test system: L1210 leukemia ip in BDF1 mice, survival T/C
Test: NCI In Vivo Anticancer Drug Screen. Data for tumor model L1210 Leukemia (intraperitoneal) in B6D2F1 (BDF1) mice
Conditions: endpoint: mean survival time, higher = longer survival
Procedure, shortened: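 Ratio derived from survival: compound-dosed mice over vehicle-dosed mice, all bearing a transplantable tumor.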

[1] = dose: 50.0 mg/kg/injection, schedule: Q01DX001 (ip), vehicle: saline

Measured: T/C

CCCCCNC(=O)CCC(=O)NCCCCC
inactive: dose: 100.0 mg/kg/injection, schedule: Q01DX001 (ip), vehicle: other 98 % of control | dose: 200.0 mg/kg/injection, schedule: Q01DX001 (ip), vehicle: other 98 % of control | dose: 400.0 mg/kg/injection, schedule: Q01DX001 (ip), vehicle: other 98 % of control

CN(C)CCCN1c2ccccc2Sc2ccc(Cl)cc21
inactive: dose: 0.77 mg/kg/injection, schedule: Q03HX024 (ip), vehicle: saline 104 % of control | dose: 0.78 mg/kg/injection, schedule: Q04DX024 (oral), vehicle: saline 98 % of control | dose: 1.55 mg/kg/injection, schedule: Q03HX024 (ip), vehicle: saline 109 % of control | dose: 1.56 mg/kg/injection, schedule: Q04DX003 (ip), vehicle: saline 101 % of control | dose: 1.56 mg/kg/injection, schedule: Q04DX024 (oral), vehicle: saline 90 % of control | dose: 2.0 mg/kg/injection, schedule: Q01DX009 (ip), vehicle: saline 95 % of control and 113 % of control | dose: 2.5 mg/kg/injection, schedule: Q01DX015 (ip), vehicle: saline 103 % of control | dose: 3.1 mg/kg/injection, schedule: Q03HX024 (ip), vehicle: saline 102 % of control | dose: 3.12 mg/kg/injection, schedule: Q01DX009 (ip), vehicle: saline 111 % of control | dose: 3.12 mg/kg/injection, schedule: Q04DX003 (ip), vehicle: saline 101 % of control | dose: 3.12 mg/kg/injection, schedule: Q04DX024 (oral), vehicle: saline 104 % of control | dose: 4.0 mg/kg/injection, schedule: Q01DX009 (ip), vehicle: saline 93 % of control and 106 % of control | dose: 5.0 mg/kg/injection, schedule: Q01DX015 (ip), vehicle: saline 105 % of control | dose: 6.2 mg/kg/injection, schedule: Q03HX024 (ip), vehicle: saline 109 % of control | dose: 6.25 mg/kg/injection, schedule: Q04DX003 (ip), vehicle: saline 102 % of control and 103 % of control | dose: 8.0 mg/kg/injection, schedule: Q01DX009 (ip), vehicle: saline 106 % of control and 120 % of control | dose: 8.0 mg/kg/injection, schedule: Q01DX015 (ip), vehicle: saline 104 % of control | dose: 10.0 mg/kg/injection, schedule: Q01DX009 (ip), vehicle: saline 111 % of control | dose: 10.0 mg/kg/injection, schedule: Q01DX015 (ip), vehicle: saline 105 % of control | dose: 12.0 mg/kg/injection, schedule: Q01DX015 (ip), vehicle: saline 115 % of control | dose: 12.4 mg/kg/injection, schedule: Q03HX024 (ip), vehicle: saline 116 % of control | dose: 12.5 mg/kg/injection, schedule: Q01DX001 (ip), vehicle: saline 94 % of control | dose: 12.5 mg/kg/injection, schedule: Q01DX009 (ip), vehicle: saline 110 % of control and 102 % of control | dose: 12.5 mg/kg/injection, schedule: Q04DX003 (ip), vehicle: saline 109 % of control [middle of 4 runs] | dose: 16.0 mg/kg/injection, schedule: Q01DX009 (ip), vehicle: saline 87 % of control | dose: 18.0 mg/kg/injection, schedule: Q01DX015 (ip), vehicle: saline 121 % of control | dose: 18.75 mg/kg/injection, schedule: Q01DX001 (ip), vehicle: saline 113 % of control and 123 % of control | dose: 18.75 mg/kg/injection, schedule: Q01DX009 (ip), vehicle: saline 101 % of control | dose: 20.0 mg/kg/injection, schedule: Q01DX009 (ip), vehicle: saline 108 % of control | dose: 20.0 mg/kg/injection, schedule: Q01DX Z (ip), vehicle: methylcellulose (MC) 108 % of control | dose: 20.0 mg/kg/injection, schedule: Q04DX003 (ip), vehicle: saline 115 % of control | dose: 25.0 mg/kg/injection, schedule: Q01DX001 (ip), vehicle: saline 101 % of control | dose: 25.0 mg/kg/injection, schedule: Q01DX009 (ip), vehicle: saline 105 % of control | dose: 25.0 mg/kg/injection, schedule: Q04DX003 (ip), vehicle: saline 109 % of control [middle of 4 runs] | dose: 26.0 mg/kg/injection, schedule: Q04DX003 (ip), vehicle: saline 121 % of control | dose: 27.0 mg/kg/injection, schedule: Q01DX015 (ip), vehicle: saline 106 % of control | dose: 30.0 mg/kg/injection, schedule: Q01DX Z (ip), vehicle: methylcellulose (MC) 117 % of control | dose: 37.5 mg/kg/injection, schedule: Q01DX001 (ip), vehicle: saline 120 % of control | dose: 37.5 mg/kg/injection, schedule: Q01DX009 (ip), vehicle: saline 120 % of control | dose: 40.0 mg/kg/injection, schedule: Q01DX015 (ip), vehicle: saline 112 % of control | dose: 40.0 mg/kg/injection, schedule: Q04DX003 (ip), vehicle: saline 106 % of control | dose: 45.0 mg/kg/injection, schedule: Q01DX Z (ip), vehicle: methylcellulose (MC) 100 % of control | [1] 108 % of control | dose: 50.0 mg/kg/injection, schedule: Q01DX009 (ip), vehicle: saline 121 % of control | dose: 50.0 mg/kg/injection, schedule: Q04DX003 (ip), vehicle: saline 101 % of control and 113 % of control | dose: 60.0 mg/kg/injection, schedule: Q01DX015 (ip), vehicle: saline 117 % of control | dose: 67.5 mg/kg/injection, schedule: Q01DX Z (ip), vehicle: methylcellulose (MC) 99 % of control | dose: 75.0 mg/kg/injection, schedule: Q04DX003 (ip), vehicle: saline 116 % of control | dose: 90.0 mg/kg/injection, schedule: Q01DX015 (ip), vehicle: saline 104 % of control | dose: 100.0 mg/kg/injection, schedule: Q01DX009 (ip), vehicle: saline 89 % of control | dose: 100.0 mg/kg/injection, schedule: Q04DX003 (ip), vehicle: saline 99 % of control

CCCCN(CCCC)CC(O)c1cc(-c2ccccc2)nc2c(N)cccc12 (stereo not drawn)
inactive: dose: 75.0 mg/kg/injection, schedule: Q01DX001 (ip), vehicle: saline 98 % of control | dose: 150.0 mg/kg/injection, schedule: Q01DX001 (ip), vehicle: saline 100 % of control | dose: 300.0 mg/kg/injection, schedule: Q01DX001 (ip), vehicle: saline 96 % of control

C[N+]1(C)C2CC(OC(=O)C(CO)c3ccccc3)CC1C1OC12 (stereo not drawn)
inactive: dose: 75.0 mg/kg/injection, schedule: Q01DX001 (ip), vehicle: other 106 % of control

COC(=O)C1CCN(Cc2ccccc2)CC1=O (stereo not drawn)
inactive: [1] 110 % of control | dose: 100.0 mg/kg/injection, schedule: Q01DX001 (ip), vehicle: saline 104 % of control | dose: 200.0 mg/kg/injection, schedule: Q01DX001 (ip), vehicle: saline 104 % of control | dose: 400.0 mg/kg/injection, schedule: Q01DX001 (ip), vehicle: saline 104 % of control

C=CCNC(=S)NNC(=S)NNc1ccccc1
inactive: dose: 100.0 mg/kg/injection, schedule: Q01DX009 (ip), vehicle: acetone 98 % of control | dose: 100.0 mg/kg/injection, schedule: Q04DX003 (ip), vehicle: saline with Tween-80 118 % of control | dose: 200.0 mg/kg/injection, schedule: Q01DX009 (ip), vehicle: acetone 90 % of control | dose: 200.0 mg/kg/injection, schedule: Q04DX003 (ip), vehicle: saline with Tween-80 93 % of control | dose: 400.0 mg/kg/injection, schedule: Q04DX003 (ip), vehicle: saline with Tween-80 96 % of control

COc1ccc(C(=O)NC(=S)Nc2cccc([N+](=O)[O-])c2)cc1
inactive: dose: 100.0 mg/kg/injection, schedule: Q01DX009 (ip), vehicle: saline with Tween-80 95 % of control and 88 % of control | dose: 100.0 mg/kg/injection, schedule: Q04DX002 (ip), vehicle: saline 88 % of control | dose: 200.0 mg/kg/injection, schedule: Q01DX009 (ip), vehicle: saline with Tween-80 88 % of control and 89 % of control | dose: 200.0 mg/kg/injection, schedule: Q04DX002 (ip), vehicle: saline 91 % of control | dose: 400.0 mg/kg/injection, schedule: Q01DX009 (ip), vehicle: saline with Tween-80 103 % of control | dose: 400.0 mg/kg/injection, schedule: Q04DX002 (ip), vehicle: saline 98 % of control
